Data as given in patent US8841449B2, “Compounds useful as inhibitors of ATR kinase” (Vertex Pharmaceuticals Incorporated, priority 2011, dated 2014).

Columns and labels:
[1] = Pharmacokinetics (clearance and volume of distribution); assay type: in vivo; conditions: for clearance / Vd: in vivo, noncompartmental, intravenous (IV) dosing, species not given; for Vd: read-out: Vss (steady state volume of distribution)
From the text: Noncompartmental pharmacokinetic parameters can be analyzed using Watson Bioanalytical LIMS (Version 7.4; Thermo Fisher Scientific) from either the blood or plasma samples. The following parameters can be estimated following intravenous (IV) dosing: terminal elimination half-life (T1/2=ln(2)/λz, where λz is the first order rate constant associated with the terminal (log-linear) portion of the curve); the area under the curve (AUClast=area under the curve from the time of dosing to the last measurable concentration); the area under the curve extrapolated to infinity (AUC0-∞=AUClast+Clast/λz). The clearance (Cl; Cl=DoseIV/AUC0-∞); the area under the first moment curve (AUMClast=area under the concentration times time versus time curve from the time of dosing to the last measurable concentration); the area under the first moment curve extrapolated to infinity (AUMC0-∞=AUMClast+Clast×t/λz+Clast/λz^2); the mean residence time (MRT=AUMC0-∞/AUC0-∞); and the steady state volume of distribution (Vdss=MRT×Cl).
Clearance and volume of distribution can also be obtained using methods known to one of skill in the art (see e.g., Handbook of Essential Pharmacokinetics, Pharmacodynamics and Drug Metabolism for Industrial Scientists, Younggil Kwon, pp 18-28 (Noncompartmental Approach)).

[2] = biological target: T1, ATR kinase (full-length ATR) (Homo sapiens, UniProt Q13535); test: ATR Inhibition Assay (radioactive-phosphate incorporation); assay type: biochemical; conditions: Ki(app); 10 μM ATP, 800 μM target peptide, 5 nM full-length ATR, 25° C.
T1 construct: Assays were carried out at 25° C. in the presence of 5 nM full-length ATR
T1 sequence (Q13535 whole entry): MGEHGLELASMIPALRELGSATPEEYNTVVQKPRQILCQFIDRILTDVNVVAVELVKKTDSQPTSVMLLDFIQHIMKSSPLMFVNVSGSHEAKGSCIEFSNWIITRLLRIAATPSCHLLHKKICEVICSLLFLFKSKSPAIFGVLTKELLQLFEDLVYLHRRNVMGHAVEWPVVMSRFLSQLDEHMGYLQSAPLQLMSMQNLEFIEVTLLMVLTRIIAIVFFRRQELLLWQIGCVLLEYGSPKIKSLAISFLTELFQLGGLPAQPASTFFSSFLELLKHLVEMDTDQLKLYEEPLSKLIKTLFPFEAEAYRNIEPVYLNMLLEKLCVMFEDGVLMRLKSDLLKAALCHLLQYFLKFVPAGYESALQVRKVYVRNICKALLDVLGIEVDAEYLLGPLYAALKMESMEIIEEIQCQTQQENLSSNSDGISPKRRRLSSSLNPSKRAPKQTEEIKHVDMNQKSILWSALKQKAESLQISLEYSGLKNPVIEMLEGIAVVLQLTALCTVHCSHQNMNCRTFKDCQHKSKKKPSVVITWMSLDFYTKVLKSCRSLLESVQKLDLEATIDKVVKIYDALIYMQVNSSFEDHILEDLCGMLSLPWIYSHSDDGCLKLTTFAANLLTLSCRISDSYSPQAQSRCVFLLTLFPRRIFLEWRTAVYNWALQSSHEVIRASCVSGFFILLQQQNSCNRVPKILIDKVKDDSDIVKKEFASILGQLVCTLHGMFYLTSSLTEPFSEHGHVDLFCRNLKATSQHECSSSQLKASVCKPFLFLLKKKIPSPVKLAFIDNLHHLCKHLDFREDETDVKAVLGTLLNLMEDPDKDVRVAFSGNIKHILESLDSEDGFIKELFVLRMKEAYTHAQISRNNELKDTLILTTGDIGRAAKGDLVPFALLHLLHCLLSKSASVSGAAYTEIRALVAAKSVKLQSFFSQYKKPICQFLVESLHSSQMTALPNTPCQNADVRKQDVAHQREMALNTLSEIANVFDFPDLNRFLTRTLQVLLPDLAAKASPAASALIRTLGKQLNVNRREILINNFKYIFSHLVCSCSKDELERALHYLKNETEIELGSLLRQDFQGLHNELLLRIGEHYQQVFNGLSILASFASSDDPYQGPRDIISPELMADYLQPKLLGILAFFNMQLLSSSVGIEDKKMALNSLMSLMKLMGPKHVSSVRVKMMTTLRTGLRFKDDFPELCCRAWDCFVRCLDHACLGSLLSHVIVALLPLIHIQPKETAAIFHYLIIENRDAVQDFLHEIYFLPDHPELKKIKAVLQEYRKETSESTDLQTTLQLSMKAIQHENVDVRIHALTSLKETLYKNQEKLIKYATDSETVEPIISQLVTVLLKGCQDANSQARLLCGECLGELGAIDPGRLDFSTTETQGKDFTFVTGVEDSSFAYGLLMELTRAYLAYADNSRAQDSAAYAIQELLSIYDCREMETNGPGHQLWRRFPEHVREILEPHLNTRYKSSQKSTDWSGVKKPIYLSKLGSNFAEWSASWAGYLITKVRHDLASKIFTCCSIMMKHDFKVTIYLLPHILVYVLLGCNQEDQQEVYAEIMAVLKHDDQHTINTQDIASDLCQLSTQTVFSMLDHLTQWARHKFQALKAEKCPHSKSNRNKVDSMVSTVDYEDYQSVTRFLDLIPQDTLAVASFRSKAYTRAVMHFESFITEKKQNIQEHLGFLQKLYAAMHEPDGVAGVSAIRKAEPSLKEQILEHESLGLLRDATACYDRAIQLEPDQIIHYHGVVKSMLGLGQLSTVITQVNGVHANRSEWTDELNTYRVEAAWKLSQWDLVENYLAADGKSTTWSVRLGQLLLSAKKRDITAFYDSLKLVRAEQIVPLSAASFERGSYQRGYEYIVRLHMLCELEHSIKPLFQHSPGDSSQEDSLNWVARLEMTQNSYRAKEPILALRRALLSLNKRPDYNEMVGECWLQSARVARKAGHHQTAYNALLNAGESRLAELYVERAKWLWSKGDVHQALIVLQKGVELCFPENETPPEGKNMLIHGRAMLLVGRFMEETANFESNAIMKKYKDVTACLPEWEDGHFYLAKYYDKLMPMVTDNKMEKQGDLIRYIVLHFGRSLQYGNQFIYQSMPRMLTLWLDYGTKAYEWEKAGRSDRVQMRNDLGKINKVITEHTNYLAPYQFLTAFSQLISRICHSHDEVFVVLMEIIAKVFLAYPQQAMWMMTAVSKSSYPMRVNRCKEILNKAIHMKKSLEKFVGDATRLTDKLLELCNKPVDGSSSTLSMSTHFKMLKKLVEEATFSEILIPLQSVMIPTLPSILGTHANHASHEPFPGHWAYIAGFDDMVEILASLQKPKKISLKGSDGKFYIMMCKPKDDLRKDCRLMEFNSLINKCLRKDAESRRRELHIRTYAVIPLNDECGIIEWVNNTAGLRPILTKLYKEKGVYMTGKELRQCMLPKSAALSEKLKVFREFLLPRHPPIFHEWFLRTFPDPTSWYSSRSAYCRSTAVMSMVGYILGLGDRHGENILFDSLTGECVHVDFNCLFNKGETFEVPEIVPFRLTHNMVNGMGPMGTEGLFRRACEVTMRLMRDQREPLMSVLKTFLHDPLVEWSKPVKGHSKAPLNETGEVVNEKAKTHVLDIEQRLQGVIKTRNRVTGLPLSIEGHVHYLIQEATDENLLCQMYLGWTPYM
Protocol: Compounds were screened for their ability to inhibit ATR kinase using a radioactive-phosphate incorporation assay. Assays were carried out in a mixture of 50 mM Tris/HCl (pH 7.5), 10 mM MgCl2 and 1 mM DTT. Final substrate concentrations were 10 μM [γ-33P]ATP (3mCi 33P ATP/mmol ATP, Perkin Elmer) and 800 μM target peptide (ASELPASQPQPFSAKKK).
Assays were carried out at 25° C. in the presence of 5 nM full-length ATR. An assay stock buffer solution was prepared containing all of the reagents listed above, with the exception of ATP and the test compound of interest. 13.5 μL of the stock solution was placed in a 96 well plate followed by addition of 2 μL of DMSO stock containing serial dilutions of the test compound (typically starting from a final concentration of 15 μM with 3-fold serial dilutions) in duplicate (final DMSO concentration 7%). The plate was pre-incubated for 10 minutes at 25° C. and the reaction initiated by addition of 15 μL [γ-33P]ATP (final concentration 10 μM).
The reaction was stopped after […] by the addition of 30 μL 0.1M phosphoric acid containing 2 mM ATP. A multiscreen phosphocellulose filter 96-well plate (Millipore, Cat no. MAPHN0B50) was pretreated with 100 μL 0.2M phosphoric acid prior to the addition of 45 μL of the stopped assay mixture. The plate was washed with 5×200 μL 0.2M phosphoric acid. After drying, 100 μL Optiphase ‘SuperMix’ liquid scintillation cocktail (Perkin Elmer) was added to the well prior to scintillation counting (1450 Microbeta Liquid Scintillation Counter, Wallac).
After removing mean background values for all of the data points, Ki(app) data were calculated from non-linear regression analysis of the initial rate data using the Prism software package (GraphPad Prism version 3.0cx for Macintosh, GraphPad Software, San Diego Calif., USA).

SMILES | Ki [2] | further results
Cc1ccsc1-c1nnc(-c2nc(-c3ccc(S(=O)(=O)C4CCNCC4)cc3)cnc2N)o1 [Compound A, reference compound] | – | clearance [1]: 34.3 mL/min/kg; Vd [1]: 12.5 L/kg
Cc1ccsc1-c1nnc(-c2nc(-c3ccc(S(=O)(=O)[C@H]4CCCNC4)cc3)cnc2N)o1 [Compound I-15, (S)-3-(5-(3-methylthiophen-2-yl)-1,3,4-oxadiazol-2-yl)-5-(4-(piperidin-3-ylsulfonyl)phenyl)pyrazin-2-amine] | ≤ 5 nM | –
Cc1ccsc1-c1nnc(-c2nc(-c3ccc(S(=O)(=O)[C@@H]4CCCNC4)cc3)cnc2N)o1 [Compound I-16, (R)-3-(5-(3-methylthiophen-2-yl)-1,3,4-oxadiazol-2-yl)-5-(4-(piperidin-3-ylsulfonyl)phenyl)pyrazin-2-amine] | ≤ 5 nM | –
Nc1ncc(-c2ccc(S(=O)(=O)C3CCCNC3)cc2)nc1-c1nnc(-c2ccc(C3COCCN3)cc2)o1 (stereo not shown) [Compound I-17, 3-(5-(4-(morpholin-3-yl)phenyl)-1,3,4-oxadiazol-2-yl)-5-(4-(piperidin-3-ylsulfonyl)phenyl)pyrazin-2-amine] | ≤ 5 nM | –
Nc1ncc(-c2ccc(S(=O)(=O)C3CCCNC3)cc2)nc1-c1nnc(-c2ccccc2)s1 (stereo not shown) [Compound I-18, 3-(5-phenyl-1,3,4-thiadiazol-2-yl)-5-(4-(piperidin-3-ylsulfonyl)phenyl)pyrazin-2-amine] | ≤ 5 nM | –
Nc1ncc(-c2ccc(S(=O)(=O)C3CCCNC3)cc2)nc1-c1nnc(-c2ccccc2)o1 (stereo not shown) [Compound I-19] | ≤ 5 nM | –
Nc1ncc(-c2ccc(S(=O)(=O)C3CCCNC3)cc2)nc1-c1cc(-c2ccc(OCCO)cc2)no1 (stereo not shown) [Compound I-20] | 5 to 10 nM | –
Nc1ncc(-c2ccc(S(=O)(=O)C3CCCNC3)cc2)nc1-c1cc(-c2ccc(CO)cc2)no1 (stereo not shown) [Compound I-21] | 5 to 10 nM | –
Nc1ncc(-c2ccc(S(=O)(=O)C3CCCNC3)cc2)nc1-c1cc(-c2ccccc2F)no1 (stereo not shown) [Compound I-22] | 10 to 25 nM | –
COc1ccccc1-c1cc(-c2nc(-c3ccc(S(=O)(=O)C4CCCNC4)cc3)cnc2N)on1 (stereo not shown) [Compound I-23] | 5 to 10 nM | –
Cc1ccccc1-c1cc(-c2nc(-c3ccc(S(=O)(=O)C4CCCNC4)cc3)cnc2N)on1 (stereo not shown) [Compound I-24] | 10 to 25 nM | –
Nc1ncc(-c2ccc(S(=O)(=O)C3CCCNC3)cc2)nc1-c1cc(-c2ccccc2Cl)no1 (stereo not shown) [Compound I-25] | 10 to 25 nM | –
Nc1ncc(-c2ccc(S(=O)(=O)C3CCCNC3)cc2)nc1-c1cc(-c2ccccc2O)no1 (stereo not shown) [Compound I-26] | ≤ 5 nM | –

Now from value to compound, other results behind:

Ki [2] | SMILES | further results
≤ 5 nM | Nc1ncc(-c2ccc(S(=O)(=O)C3CCCNC3)cc2)nc1-c1cc(-c2ccccc2)no1 (stereo not shown) [Compound I-1, 3-(3-phenylisoxazol-5-yl)-5-(4-(piperidin-3-ylsulfonyl)phenyl)pyrazin-2-amine] | clearance [1]: 0.9 mL/min/kg; Vd [1]: 0.9 L/kg
≤ 5 nM | Cc1ccsc1-c1cc(-c2nc(-c3ccc(S(=O)(=O)C4CCCNC4)cc3)cnc2N)on1 (stereo not shown) [Compound I-2, 3-(3-(3-methylthiophen-2-yl)isoxazol-5-yl)-5-(4-(piperidin-3-ylsulfonyl)phenyl)pyrazin-2-amine] | –
≤ 5 nM | Nc1ncc(-c2ccc(S(=O)(=O)C3CCCNC3)cc2)nc1-c1cc(-c2cccs2)no1 (stereo not shown) [Compound I-3, 5-(4-(piperidin-3-ylsulfonyl)phenyl)-3-(3-(thiophen-2-yl)isoxazol-5-yl)pyrazin-2-amine] | clearance [1]: 3.3 mL/min/kg; Vd [1]: 1 L/kg
≤ 5 nM | Nc1ncc(-c2ccc(S(=O)(=O)C3CCCNC3)cc2)nc1-c1cc(-c2ccc(O)cc2)no1 (stereo not shown) [Compound I-4, 4-(5-(3-amino-6-(4-(piperidin-3-ylsulfonyl)phenyl)pyrazin-2-yl)isoxazol-3-yl)phenol] | –
≤ 5 nM | CNCc1ccc(-c2cc(-c3nc(-c4ccc(S(=O)(=O)C5CCCNC5)cc4)cnc3N)on2)cc1 (stereo not shown) [Compound I-5, 3-(3-(4-((methylamino)methyl)phenyl)isoxazol-5-yl)-5-(4-(piperidin-3-ylsulfonyl)phenyl)pyrazin-2-amine] | –
≤ 5 nM | Nc1ncc(-c2ccc(S(=O)(=O)C3CCCNC3)cc2)nc1-c1cc(-c2ccc(CNC3CCOCC3)cc2)no1 (stereo not shown) [Compound I-6, 5-(4-(piperidin-3-ylsulfonyl)phenyl)-3-(3-(4-(((tetrahydro-2H-pyran-4-yl)amino)methyl)phenyl)isoxazol-5-yl)pyrazin-2-amine] | –
≤ 5 nM | Nc1ncc(-c2ccc(S(=O)(=O)[C@@H]3CCCNC3)cc2)nc1-c1cc(-c2ccc([C@@H]3COCCN3)cc2)no1 [Compound I-7, 3-(3-(4-((R)-morpholin-3-yl)phenyl)isoxazol-5-yl)-5-(4-((R)-piperidin-3-ylsulfonyl)phenyl)pyrazin-2-amine] | –
≤ 5 nM | Nc1ncc(-c2ccc(S(=O)(=O)C3CCCNC3)cc2)nc1-c1cc(-c2ccsc2)no1 (stereo not shown) [Compound I-8, 5-(4-(piperidin-3-ylsulfonyl)phenyl)-3-(3-(thiophen-3-yl)isoxazol-5-yl)pyrazin-2-amine] | –
≤ 5 nM | Nc1ncc(-c2ccc(S(=O)(=O)C3CCCNC3)cc2)nc1-c1cc(-c2nccs2)no1 (stereo not shown) [Compound I-9, 5-(4-(piperidin-3-ylsulfonyl)phenyl)-3-(3-(thiazol-2-yl)isoxazol-5-yl)pyrazin-2-amine] | –
≤ 5 nM | Cc1ccsc1-c1nnc(-c2nc(-c3ccc(S(=O)(=O)C4CCCNC4)cc3)cnc2N)o1 (stereo not shown) [Compound I-10, 3-(5-(3-methylthiophen-2-yl)-1,3,4-oxadiazol-2-yl)-5-(4-(piperidin-3-ylsulfonyl)phenyl)pyrazin-2-amine] | PK properties (clearance and volume of distribution) compared with similar compounds ([1]; compared to a similar 4-piperidine compound (Compound A)): much lower clearance and volume of distribution; clearance [1]: 9.3 mL/min/kg; Vd [1]: 3 L/kg
≤ 5 nM | Nc1ncc(-c2ccc(S(=O)(=O)C3CCCNC3)cc2)nc1-c1nnc(-c2sccc2F)o1 (stereo not shown) [Compound I-11, 3-(5-(3-fluorothiophen-2-yl)-1,3,4-oxadiazol-2-yl)-5-(4-(piperidin-3-ylsulfonyl)phenyl)pyrazin-2-amine] | –
≤ 5 nM | Nc1ncc(-c2ccc(S(=O)(=O)C3CCCNC3)cc2)nc1-c1nnc(-c2cccs2)o1 (stereo not shown) [Compound I-12, 5-(4-(piperidin-3-ylsulfonyl)phenyl)-3-(5-(thiophen-2-yl)-1,3,4-oxadiazol-2-yl)pyrazin-2-amine] | –
≤ 5 nM | COc1ccsc1-c1nnc(-c2nc(-c3ccc(S(=O)(=O)C4CCCNC4)cc3)cnc2N)o1 (stereo not shown) [Compound I-13, 3-(5-(3-methoxythiophen-2-yl)-1,3,4-oxadiazol-2-yl)-5-(4-(piperidin-3-ylsulfonyl)phenyl)pyrazin-2-amine] | –
≤ 5 nM | COc1ccccc1-c1nnc(-c2nc(-c3ccc(S(=O)(=O)C4CCCNC4)cc3)cnc2N)o1 (stereo not shown) [Compound I-14, 3-(5-(2-methoxyphenyl)-1,3,4-oxadiazol-2-yl)-5-(4-(piperidin-3-ylsulfonyl)phenyl)pyrazin-2-amine] | clearance [1]: 16 mL/min/kg; Vd [1]: 2 L/kg
